2 compounds from patent US8592152B2, “Gene detection assay for improving the likelihood of an effective response to an EGFR antagonist cancer therapy” (Genentech, Inc., priority 2000, dated 2013) can be followed below.

This assay has as its system metastatic breast cancer. Kind of assay: FISH/clinical outcome study: chemotherapy +/- Herceptin, 1st line therapy. Format: in vivo, human. The method, then:
The Clinical Testing Assay (CTA) involves two separate IHC assays performed with either monoclonal antibodies 4D5 (after protease digestion of the formalin fixed sample) or CB11 (after heat treatment of the formalin fixed sample). Subjects were eligible if either assay was scored at 2+ or 3+. If both were performed, the final score was the higher of the two results. […] Thus, formalin-fixed cut sections stored between 2.5 and 4.5 years from 540 subjects provided the sample pool for this study.

On to `CC(=O)O[C@H]1C(=O)[C@@]2(C)[C@H]([C@H](OC(=O)c3ccccc3)[C@]3(O)C[C@H](OC(=O)[C@H](O)[C@@H](NC(=O)c4ccccc4)c4ccccc4)C(C)=C1C3(C)C)[C@]1(OC(C)=O)CO[C@@H]1C[C@@H]2O` [P, Paditaxol], for which, under “2+/3+ population (469)”, the “Response rate of newly defined populations” value (shortened to “Response rate”) is on record as 17, the “Survival of newly defined populations” value stood at 18 months and the “Time to progression of newly defined populations” value (shortened to “Time to progression”) turned out to be 2.7 months. Besides, for the setting “3+ population (349)”, the “Response rate” value is 17, the “Survival of newly defined populations” value is given as 18 months and the “Time to progression” value amounted to 3.0 months. Moreover, where the note is “FISH+ population (240)”, the “Response rate” value is 14, the “Survival of newly defined populations” value is 14 months and the “Time to progression” value came to 3.2 months.
As for adrinomycin and cyclophosphamide [AC], the “Response rate” value (2+/3+ population (469)) is on record as 42, the “Response rate” value (3+ population (349)) is 42 and the “Response rate” value (FISH+ population (240)) worked out at 40. Also, the “Survival of newly defined populations” value was 21 months (2+/3+ population (469)), 21 months (3+ population (349)) and 20 months (FISH+ population (240)). In addition, the “Time to progression” value by setting is: (2+/3+ population (469)) 6.1 months; (3+ population (349)) 6.0 months; (FISH+ population (240)) 6.2 months.
